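Method: 48-hour compound exposure of cells in 96-well plates, five concentrations, linear interpolation of endpoints. At the GI50, growth is halved.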 The source made the active and inactive calls. No stated cut-off is given here; in the data, active = GI50 up to about 1.1 µM and inactive = higher.
Columns and labels:
Experiment in all cases: NCI-60 cell line screen, 48 h
[1] = test system: A498
[2] = test system: A549
[3] = test system: ACHN
[4] = test system: BT-549
[5] = test system: DU-145
[6] = test system: EKVX
[7] = test system: K562
[8] = test system: LOX IMVI
[9] = test system: MCF7
[10] = test system: MDA-N
[11] = test system: Malme-3M
[12] = test system: OVCAR-3
[13] = test system: OVCAR-4
[14] = test system: SF-295
[15] = test system: SF-539
[16] = test system: SK-MEL-5
[17] = test system: SN12C
[18] = test system: UACC-257
[19] = test system: HT-29
[20] = test system: PC-3

Measured: GI50

COc1cc(/C=C2/SC(c3ccccc3)N(c3ccccc3Cl)C2=O)cc(OC)c1OC (stereo unspecified)
inactive: [1] 87.3 µM | [2] 36.3 µM | [3] 58.1 µM | [4] 28.2 µM | [5] 45 µM | [6] 44.1 µM | [7] 31.2 µM | [8] 17.6 µM | [9] 35.9 µM | [10] 28 µM | [11] 23.4 µM | [12] 27.9 µM | [13] 41.6 µM | [14] 32.1 µM | [15] 19.7 µM | [16] 15.4 µM | [17] 23.7 µM | [18] 42.2 µM

COc1cccc(CC(C)NCC(O)c2ccc(O)c(O)c2)c1 (stereo unspecified)
inactive: [1] > 100 µM | [2] 57 µM | [3] 36.6 µM | [4] 42.7 µM | [5] 31.9 µM | [6] 57.3 µM | [19] > 100 µM | [7] 94.4 µM | [8] 43.3 µM | [9] 41.8 µM | [11] 43.5 µM | [12] 26.6 µM | [13] 18.5 µM | [20] 46.1 µM | [14] > 100 µM | [15] 37.2 µM | [16] 60.3 µM | [17] 25 µM | [18] 34.1 µM

COc1cccc(CCNC(=O)Cc2ccccc2CCO)c1
inactive: [1] > 100 µM | [2] > 100 µM | [3] > 100 µM | [4] > 100 µM | [5] > 100 µM | [6] > 100 µM | [19] > 100 µM | [7] > 100 µM | [9] > 100 µM | [12] > 100 µM | [13] > 100 µM | [20] > 100 µM | [14] > 100 µM | [15] > 100 µM | [16] > 100 µM | [17] > 100 µM | [18] > 100 µM

COC1C=COC2(C)Oc3c(C)c(O)c4c(O)c(c(C5SCCS5)c(O)c4c3C2=O)NC(=O)/C(C)=C\C=CC(C)C(O)C(C)C(O)C(C)C(OC(C)=O)C1C (stereo unspecified)
inactive: [1] 13.1 µM | [2] 6.79 µM | [3] 3.01 µM | [4] 3.84 µM | [5] 1.29 µM | [19] 3.49 µM | [7] 3.66 µM | [8] 2.18 µM | [9] 4.24 µM | [11] 8.11 µM | [12] 4.99 µM | [13] 7.33 µM | [20] 4.98 µM | [14] 4.74 µM | [15] 8.15 µM | [16] 7.89 µM | [17] 2.55 µM | [18] 4.7 µM

COc1c(Sc2c(SCSc3cnc4ccccc4c3Sc3cnc4ccccc4c3OC)cnc3ccccc23)cnc2ccccc12
inactive: [2] > 100 µM | [3] 82.6 µM | [4] 54.5 µM | [5] > 100 µM | [6] 35.7 µM | [19] 78.7 µM | [8] > 100 µM | [10] 77.8 µM | [12] > 100 µM | [13] 37.2 µM | [20] > 100 µM | [14] > 100 µM | [15] > 100 µM | [16] 24.8 µM | [17] > 100 µM | [18] > 100 µM

C[N+](C)([O-])Cc1cccc(NC(=O)c2ccc(C(=O)Nc3cccc(C[N+](C)(C)[O-])c3)cc2)c1
inactive: [2] > 100 µM | [3] > 100 µM | [4] > 100 µM | [5] > 100 µM | [6] > 100 µM | [19] > 100 µM | [7] > 100 µM | [8] > 100 µM | [9] > 100 µM | [11] > 100 µM | [12] > 100 µM | [13] > 100 µM | [20] > 100 µM | [14] > 100 µM | [15] > 100 µM | [16] > 100 µM | [17] > 100 µM | [18] > 100 µM

COC(=O)c1c2c(cc3c1CC1(Cc4ccccc4C1=O)C3)CCC2 (stereo unspecified)
inactive: [1] 22.4 µM | [2] 20.7 µM | [3] 23.9 µM | [5] > 100 µM | [6] 15.9 µM | [19] 17.1 µM | [7] 8.34 µM | [8] 31 µM | [9] 43.8 µM | [10] 8.55 µM | [11] 20.3 µM | [12] 19.5 µM | [13] 36.1 µM | [20] 55.7 µM | [14] 55.6 µM | [15] 71.1 µM | [16] 15.3 µM | [17] 25.7 µM | [18] 43.3 µM

COc1ccc2[nH]c3c(c2c1)CCc1ccccc1-3
inactive: [2] > 100 µM | [3] > 100 µM | [4] > 100 µM | [5] > 100 µM | [6] 17.6 µM | [19] > 100 µM | [7] > 100 µM | [8] 78.9 µM | [9] 79.3 µM | [10] > 100 µM | [11] 39.2 µM | [12] > 100 µM | [13] 37.6 µM | [20] 52.8 µM | [14] 32.8 µM | [15] 16.7 µM | [16] > 100 µM | [17] > 100 µM | [18] > 100 µM

Cc1cc(OCc2nnc3n2S(=O)(=O)c2ccccc2N3C)ccc1Cl
inactive: [1] 24.6 µM | [2] 44.9 µM | [3] 19.9 µM | [4] 18.2 µM | [5] 56 µM | [6] 33.1 µM | [19] 52 µM | [7] 68.7 µM | [8] 33.7 µM | [9] 89.7 µM | [12] 19.5 µM | [13] 8 µM | [20] 95.5 µM | [14] 18.8 µM | [15] 16.7 µM | [16] 38.7 µM | [17] 32.4 µM | [18] 61 µM

CCCC(CCN)(CCN)[N+](=O)[O-]
inactive: [1] > 100 µM | [2] > 100 µM | [3] > 100 µM | [4] > 100 µM | [5] > 100 µM | [6] > 100 µM | [19] > 100 µM | [7] > 100 µM | [10] > 100 µM | [11] > 100 µM | [13] > 100 µM | [20] > 100 µM | [14] > 100 µM | [15] > 100 µM | [16] > 100 µM | [17] > 100 µM | [18] > 100 µM

Cc1cccc(NC(=O)CC(=O)N2N=C(N3c4ccccc4Sc4ccccc43)CC2c2ccccc2)c1 (stereo unspecified)
inactive: [1] > 100 µM | [2] > 100 µM | [3] > 100 µM | [4] > 100 µM | [5] > 100 µM | [6] > 100 µM | [19] > 100 µM | [7] > 100 µM | [9] > 100 µM | [12] > 100 µM | [13] > 100 µM | [20] > 100 µM | [14] > 100 µM | [15] > 100 µM | [16] > 100 µM | [17] > 100 µM | [18] > 100 µM
